Test results: patent US9409952B2, “Peptide-compound cyclization method” (Chugai Seiyaku Kabushiki Kaisha, priority 2011, dated 2016)
Read-outs that look alike come from different tables or passages of the source. Starred links: 1 amine or outer side, 2 acyl side, 3 side chain; linkers in the order of their positions; H or OH if unused. Positions of bridges follow the written chain, without caps; N, C: chain ends. Non-standard residues stand in square brackets, D forms with d. Residues, ends and D or L forms follow the SMILES beside them. *: point of attachment. NMeF = CN[C@@H](Cc1ccccc1)C(=O)O; NMeGABA = CN(CCCC(=O)[*:2])[*:1]; NMeβAla = CN(CCC(=O)[*:2])[*:1]; NMeL = CN[C@@H](CC(C)C)C(=O)O; NMeV = CN[C@H](C(=O)O)C(C)C; NMeA = CN[C@@H](C)C(=O)O; Piperidide = C1CCN(*)CC1; dNMeA = CN[C@H](C)C(=O)O; Sar = CNCC(=O)O; tBu = CC(C)(C)*

How the values were obtained:
[1] = PAMPA (parallel artificial membrane permeability assay); format: in vitro ADME; conditions: PAMPA
In short: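 Artificial membrane was 10% (w/v) egg lecithin plus 0.5% (w/v) cholesterol in dodecane on a PVDF filter. A 10 mM DMSO stock was added at 0.5% (v/v) to donor buffer (50 mM MOPSO, pH 6.5, 5.0% glycocholic acid). After 18 h at 37 °C, LC/MS or LC/UV gave donor and acceptor levels for Pe.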

[2] = Metabolic stability in human hepatic microsome; format: in vitro ADME; conditions: microsomes
[3] = membrane permeation rate (Pe), 50 mM MOPSO buffer pH 6.5 with 5.0% glycocholic acid, 37° C., 18 hours, read-out: iPAMPA Pe
[4] = pH 7.4, human hepatic microsome, NADPH(+), read-out: CL NADPH(+)

Row | SMILES | Papp at 18 hours, 50 µM ([1]; pH 6.5) [×10⁻⁶ cm/s] | microsomal CLint at 1 uM ([2]; human, pH 7.4, CL NADPH(+)) [µL/min/mg] | Papp at 18 hours, 50 µM [1, 3] [×10⁻⁶ cm/s] | microsomal CLint at 1 uM [2, 4] [µL/min/mg]
1 | CC[C@H](C)[C@@H]1NC(=O)[C@@H](C)N(C)C(=O)C[C@@H](C(=O)N(C)[C@@H](Cc2ccccc2)C(=O)N[C@@H](C)C(=O)N2CCCCC2)NC(=O)[C@H](Cc2ccccc2)N(C)C(=O)[C@H](C)NC(=O)[C@H](CC(C)C)N(C)C(=O)[C@H](C)N(C)C(=O)[C@H]([C@@H](C)O)NC(=O)[C@H](C(C)C)N(C)C(=O)[C@H](C)N(C)C1=O [DP-124] ([dNMeA]I[NMeA][NMeV]T[NMeA][NMeL]A[NMeF]D[NMeF]A-Piperidide; lactam N-10) | 20 | 27 | – | –
2 | CC(C)C[C@@H]1NC(=O)[C@H](Cc2ccccc2)N(C)C(=O)[C@H](CC(C)C)N(C)C(=O)CCN(C)C(=O)C[C@@H](C(=O)N2CCCCC2)NC(=O)[C@H](CC(C)C)N(C)C(=O)[C@H](Cc2ccccc2)N(C)C(=O)[C@H]([C@@H](C)O)NC(=O)[C@H](Cc2ccccc2)N(C)C1=O [DP-126] ([NMeβAla][NMeL][NMeF]L[NMeF]T[NMeF][NMeL]D-Piperidide; lactam N-9) | – | – | 54 | 239
3 | CC(C)C[C@@H]1NC(=O)[C@@H](C)N(C)C(=O)C[C@@H](C(=O)N2CCCCC2)NC(=O)[C@H](CC(C)C)N(C)C(=O)[C@H](Cc2ccccc2)N(C)C(=O)[C@H](CC(C)C)NC(=O)[C@H](Cc2ccccc2)N(C)C(=O)[C@H](C)N(C)C(=O)[C@H]([C@@H](C)O)NC1=O [DP-127] ([dNMeA]LT[NMeA][NMeF]L[NMeF][NMeL]D-Piperidide; lactam N-9) | – | – | 47 | 194
4 | CC(C)C[C@H]1C(=O)N[C@@H]([C@@H](C)O)C(=O)N(C)[C@@H](C)C(=O)N(C)[C@@H](CC(C)C)C(=O)N[C@H](C(=O)N2CCCCC2)CC(=O)N(C)CCCC(=O)N[C@@H](C)C(=O)N(C)[C@@H](Cc2ccccc2)C(=O)N[C@@H](Cc2ccccc2)C(=O)N1C [DP-128] ([NMeGABA]A[NMeF]F[NMeL]T[NMeA][NMeL]D-Piperidide; lactam N-9) | – | – | 23 | 276
5 | CC(C)C[C@H]1C(=O)N(C)[C@@H](Cc2ccccc2)C(=O)NCC(=O)N[C@H](C(=O)N2CCCCC2)CC(=O)N(C)CCCC(=O)N[C@@H]([C@@H](C)O)C(=O)N(C)[C@@H](C)C(=O)N(C)[C@@H](Cc2ccccc2)C(=O)N[C@@H](COC(C)(C)C)C(=O)N1C [DP-129] ([NMeGABA]T[NMeA][NMeF]S(tBu)[NMeL][NMeF]GD-Piperidide; lactam N-9) | – | – | 17 | 120
6 | CC(C)C[C@H]1C(=O)N[C@@H]([C@@H](C)O)C(=O)N(C)[C@@H](C)C(=O)N(C)[C@@H](CC(C)C)C(=O)N(C)[C@@H](Cc2ccccc2)C(=O)N[C@@H](COC(C)(C)C)C(=O)N[C@H](C(=O)N2CCCCC2)CC(=O)N(C)CCCC(=O)N(C)[C@@H](C)C(=O)N1C [DP-130] ([NMeGABA][NMeA][NMeL]T[NMeA][NMeL][NMeF]S(tBu)D-Piperidide; lactam N-9) | – | – | 21 | 76
7 | CC[C@H](C)[C@@H]1NC(=O)[C@H](CC(C)C)N(C)C(=O)[C@H](Cc2ccccc2)N(C)C(=O)[C@H](CC(C)C)NC(=O)[C@@H](C)NC(=O)C[C@@H](C(=O)N2CCCCC2)NC(=O)[C@H](C)N(C)C(=O)[C@H](C)N(C)C(=O)CN(C)C(=O)[C@H]([C@@H](C)O)NC(=O)[C@H](Cc2ccccc2)N(C)C(=O)[C@H](C(C)C)N(C)C1=O [DP-131] ([dA]L[NMeF][NMeL]I[NMeV][NMeF]T[Sar][NMeA][NMeA]D-Piperidide; lactam N-12) | – | – | 61 | 48
8 | CC[C@H](C)[C@@H]1NC(=O)[C@@H](C(C)C)NC(=O)C[C@@H](C(=O)N2CCCCC2)NC(=O)[C@H](C)N(C)C(=O)[C@H](CC(C)C)N(C)C(=O)CN(C)C(=O)[C@H]([C@@H](C)O)NC(=O)[C@H](Cc2ccccc2)N(C)C(=O)[C@H](CC(C)C)N(C)C(=O)[C@H](C)NC(=O)[C@H](C(C)C)N(C)C(=O)[C@H](Cc2ccccc2)N(C)C1=O [DP-132] ([dV]I[NMeF][NMeV]A[NMeL][NMeF]T[Sar][NMeL][NMeA]D-Piperidide; lactam N-12) | – | – | 39 | 37
9 | CC(C)C[C@@H]1NC(=O)[C@H](C)N(C)C(=O)C[C@@H](C(=O)N2CCCCC2)NC(=O)[C@H](Cc2ccccc2)N(C)C(=O)[C@H](CC(C)C)N(C)C(=O)CN(C)C(=O)[C@H]([C@@H](C)O)NC(=O)[C@H](C)N(C)C(=O)[C@H](C(C)C)N(C)C(=O)[C@H](C)NC(=O)[C@H](CC(C)C)N(C)C(=O)[C@H](Cc2ccccc2)N(C)C1=O [DP-133] ([NMeA]L[NMeF][NMeL]A[NMeV][NMeA]T[Sar][NMeL][NMeF]D-Piperidide; lactam N-12) | – | – | 30 | 51
